Here are results for ten compounds from paper PMC9518259, “Design and synthesis of benzothiazole-based SLC-0111 analogues as new inhibitors for the cancer-associated carbonic anhydrase isoforms IX and XII” (Journal of Enzyme Inhibition and Medicinal Chemistry, 2022).

One test concerns the target T1, hCA XII (Homo sapiens, UniProt O43570).
T1 construct: gene CA12
The experiment in a line: stopped-flow CO2 hydrase assay. Format: biochemical.

A further test deals with T2, hCA II (Homo sapiens, UniProt P00918).
T2 construct: gene CA2
The experiment in a line: stopped-flow CO2 hydrase assay. Format: biochemical. From the text:
stopped-flow CO2 hydrase assay on hCA II

In a further test the target is T3, hCA IX (Homo sapiens, UniProt Q16790).
T3 construct: gene CA9
The experiment in a line: stopped-flow CO2 hydrase assay. Format: biochemical.

The next test deals with T4, hCA I (Homo sapiens, UniProt P00915).
T4 construct: gene CA1
T4 sequence (P00915 2-261): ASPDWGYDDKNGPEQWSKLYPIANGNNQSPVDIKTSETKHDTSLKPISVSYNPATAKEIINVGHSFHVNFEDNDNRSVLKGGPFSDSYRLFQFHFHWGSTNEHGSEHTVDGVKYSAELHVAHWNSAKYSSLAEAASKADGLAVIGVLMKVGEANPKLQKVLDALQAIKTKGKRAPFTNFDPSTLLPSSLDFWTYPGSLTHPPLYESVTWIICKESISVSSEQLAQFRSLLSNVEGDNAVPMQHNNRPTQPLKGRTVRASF
The experiment in a line: stopped-flow CO2 hydrase assay. Format: biochemical. An excerpt:
stopped-flow CO2 hydrase assay on hCA I

Test [1] is described as follows: stopped-flow CO2 hydrase assay. Format: biochemical, Homo sapiens. The settings on record: read-out: KI (nM)^a / hCA I.
A short description of test [2]: stopped-flow CO2 hydrase assay. The settings on record: read-out: KI (nM)^a / hCA I. Format: biochemical, Homo sapiens. This is another data set of the same source.

Where two headings read alike, the source gives them in different places.

T1 sequence (O43570 25-354): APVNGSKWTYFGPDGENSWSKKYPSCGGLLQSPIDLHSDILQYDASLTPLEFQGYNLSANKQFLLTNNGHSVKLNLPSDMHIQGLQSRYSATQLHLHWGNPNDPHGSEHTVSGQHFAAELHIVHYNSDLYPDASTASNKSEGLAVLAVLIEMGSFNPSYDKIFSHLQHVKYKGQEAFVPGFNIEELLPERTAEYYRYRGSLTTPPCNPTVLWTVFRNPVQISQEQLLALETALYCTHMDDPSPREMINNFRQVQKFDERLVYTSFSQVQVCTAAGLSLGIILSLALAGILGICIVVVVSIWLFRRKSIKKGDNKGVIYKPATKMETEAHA

Turning to `NS(=O)(=O)c1ccccc1NC(=O)Nc1nc2ccccc2s1` [8a], the Ki on hCA XII came to 41.2 nM; at hCA II, 785 nM; on hCA IX (read-out: KI (nM)^a / hCA IX), 65.3 nM; at hCA I, 12600 nM.
The matching figures for `NS(=O)(=O)c1cccc(NC(=O)Nc2nc3ccccc3s2)c1` [8b]: 57.5 nM, 653 nM, 48.9 nM and 4040 nM.
The like results for `NS(=O)(=O)c1ccc(NC(=O)Nc2nc3ccccc3s2)cc1` [8c] were, in that order, 29.3 nM, 54.1 nM, 31.5 nM and 362 nM.
The matching figures for `O=C(Nc1nc2ccccc2s1)Nc1ccccc1C(=O)O` [14a]: 39900 nM, 75900 nM, 44600 nM and 68100 nM.
With `O=C(Nc1cccc(C(=O)O)c1)Nc1nc2ccccc2s1` [14b], the Ki at hCA XII was 9140 nM; on hCA II it was 94100 nM; on hCA IX (read-out: KI (nM)^a / hCA IX), 16300 nM; at hCA I, 82800 nM.
In the case of `O=C(Nc1ccc(C(=O)O)cc1)Nc1nc2ccccc2s1` [14c], the Ki is 8540 nM on hCA XII, 9470 nM at hCA II, 2410 nM on hCA IX (read-out: KI (nM)^a / hCA IX) and 11800 nM at hCA I.
In the case of `O=C(Nc1ccc(S(=O)(=O)Nc2nccs2)cc1)Nc1nc2ccccc2s1` [16a], the Ki on hCA XII is 32500 nM; in test [1] it was over 100000 nM; on hCA IX (read-out: KI (nM)^a / hCA IX), 56100 nM; at hCA I, over 100000 nM.
Consider `Cc1noc(NS(=O)(=O)c2ccc(NC(=O)Nc3nc4ccccc4s3)cc2)c1C` [16b], for which the Ki (in test [2]; in test [1]; at hCA IX (read-out: KI (nM)^a / hCA I); at hCA I) was over 100000 nM throughout.
On to `NS(=O)(=O)c1ccc(CNC(=O)Nc2nc3ccccc3s2)cc1` [compound 10, 10], for which the Ki at hCA XII came to 51.2 nM; at hCA II it was 204 nM; on hCA IX (read-out: KI (nM)^a / hCA IX), 58.8 nM; on hCA I it was 946 nM.
As to `NS(=O)(=O)c1ccc(CCNC(=O)Nc2nc3ccccc3s2)cc1` [compound 12, 12], the Ki at hCA XII turned out to be 34.7 nM; at hCA II, 28.5 nM; at hCA IX (read-out: KI (nM)^a / hCA IX), 16.4 nM; on hCA I it was 61.5 nM.
